In this experiment the target is T1, recombinant human NK3 receptor (Homo sapiens, UniProt P29371).
T1 construct: expressed in transfected cells; host or cells: HEK293 cells (transient expression), membranes
T1 sequence (P29371 1-465): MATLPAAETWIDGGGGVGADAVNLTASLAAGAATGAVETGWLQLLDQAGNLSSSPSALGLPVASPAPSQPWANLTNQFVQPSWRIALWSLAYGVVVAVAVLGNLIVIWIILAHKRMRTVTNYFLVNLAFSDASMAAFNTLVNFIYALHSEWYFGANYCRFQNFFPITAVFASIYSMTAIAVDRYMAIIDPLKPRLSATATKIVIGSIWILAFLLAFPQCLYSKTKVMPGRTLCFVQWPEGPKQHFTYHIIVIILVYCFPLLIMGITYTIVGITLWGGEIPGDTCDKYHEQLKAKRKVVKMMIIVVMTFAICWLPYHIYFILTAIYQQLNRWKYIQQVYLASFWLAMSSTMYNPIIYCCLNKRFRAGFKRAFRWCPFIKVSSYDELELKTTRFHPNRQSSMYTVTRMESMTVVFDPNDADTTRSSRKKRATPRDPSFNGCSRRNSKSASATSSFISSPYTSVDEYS
The experiment can be described thus: [3H]SR142801 competition binding assay. The following applies: membranes from HEK293 cells transiently expressing recombinant human NK3 receptor; [3H]SR142801 radioligand; 75 min at RT; Ki by Cheng-Prussoff; read-out: Data Ki (hNK-3 receptor affinity). The essentials:
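Membranes from HEK293 cells transiently expressing the receptor, 5 μg protein/well, in 50 mM Tris-HCl pH 7.4 with 4 mM MnCl2, 1 μM phosphoramidon, 0.1% BSA; nonspecific binding defined with 10 μM SB222200. Filtration and scintillation counting; IC50 from Hill fit, Ki by Cheng-Prussoff using saturation-derived KD, duplicates.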
Turning to `O=C(N1CCN(c2ccc(F)cc2)CC1)N1CCC(C(=O)N[C@H](c2cccc(F)c2)C2CC2)(c2ccc(F)cc2)CC1` [Example 199, 4-(4-Fluoro-phenyl)-1-[4-(4-fluoro-phenyl)-piperazine-1-carbonyl]-piperidine-4-carboxylic acid [(S)-cyclopropyl-(3-fluoro-phenyl)-methyl]-amide], the Ki (in general, a measure of affinity in units of concentration, obtained from inhibition or displacement) was determined as 5.1 nM.
The result for `Cc1noc(-c2ccc(C(=O)N3CCC(C(=O)NC(c4ccc(F)cc4)C(F)(F)F)(c4ccc(F)cc4)CC3)cc2)n1` (stereo not drawn) [Example 200, 4-(4-Fluoro-phenyl)-1-[4-(3-methyl-[1,2,4]oxadiazol-5-yl)-benzoyl]-piperidine-4-carboxylic acid [2,2,2-trifluoro-1-(4-fluoro-phenyl)-ethyl]-amide] reads 15 nM; that for `C[C@H](NC(=O)C1(c2ccccc2)CCN(C(=O)N2CCN(c3ccc(F)cc3)CC2)CC1)c1ccc(F)cc1` [Example 203, 1-[4-(4-Fluoro-phenyl)-piperazine-1-carbonyl]-4-phenyl-piperidine-4-carboxylic acid [(S)-1-(4-fluoro-phenyl)-ethyl]-amide], 8.7 nM; that for `C[C@H](NC(=O)C1(c2ccccc2)CCN(C(=O)N2CCC(c3ccccc3)CC2)CC1)c1ccccc1` [Example 204, 4-Phenyl-1-(4-phenyl-piperidine-1-carbonyl)-piperidine-4-carboxylic acid ((S)-1-phenyl-ethyl)-amide], 79.2 nM.
The result for `C[C@H](NC(=O)C1(c2ccccc2)CCN(C(=O)N2CCN(c3ccc(Cl)cn3)CC2)CC1)c1ccccc1` [Example 206, 1-[4-(5-Chloro-pyridin-2-yl)-piperazine-1-carbonyl]-4-phenyl-piperidine-4-carboxylic acid ((S)-1-phenyl-ethyl)-amide] reads 79.8 nM.
The result for `CC(=O)c1ccc(N2CCN(C(=O)N3CCC(C(=O)N[C@@H](C)c4ccccc4)(c4ccccc4)CC3)CC2)cc1` [Example 207, 1-[4-(4-Acetyl-phenyl)-piperazine-1-carbonyl]-4-phenyl-piperidine-4-carboxylic acid ((S)-1-phenyl-ethyl)-amide] reads 36.3 nM; that for `Cc1ccc(N2CCN(C(=O)N3CCC(C(=O)N[C@@H](C)c4ccccc4)(c4ccccc4)CC3)CC2)cc1` [Example 208, 4-Phenyl-1-(4-p-tolyl-piperazine-1-carbonyl)-piperidine-4-carboxylic acid ((S)-1-phenyl-ethyl)-amide], 70.9 nM; that for `C[C@H](NC(=O)C1(c2ccccc2)CCN(C(=O)N2CCN(c3cnccn3)CC2)CC1)c1ccccc1` [Example 209, 4-Phenyl-1-(2,3,5,6-tetrahydro-[1,2′]bipyrazinyl-4-carbonyl)-piperidine-4-carboxylic acid ((S)-1-phenyl-ethyl)-amide], 58.4 nM.
`C[C@H](NC(=O)C1(c2ccccc2)CCN(C(=O)N2CCN(c3ccc(S(C)(=O)=O)cc3F)CC2)CC1)c1ccccc1` [Example 211, 1-[4-(2-Fluoro-4-methanesulfonyl-phenyl)-piperazine-1-carbonyl]-4-phenyl-piperidine-4-carboxylic acid ((S)-1-phenyl-ethyl)-amide]: the Ki worked out at 29.4 nM.
The result for `C[C@H](NC(=O)C1(c2ccccc2)CCN(C(=O)N2CCN(c3ccc(F)cc3)CC2)CC1)c1ccccc1` [Example 213, 1-[4-(4-Fluoro-phenyl)-piperazine-1-carbonyl]-4-phenyl-piperidine-4-carboxylic acid ((S)-1-phenyl-ethyl)-amide] reads 8.8 nM.
For `Cc1noc(C2CCN(C(=O)N3CCC(C(=O)N[C@@H](C)c4ccccc4)(c4ccccc4)CC3)CC2)n1` [Example 214, 1-[4-(3-Methyl-[1,2,4]oxadiazol-5-yl)-piperidine-1-carbonyl]-4-phenyl-piperidine-4-carboxylic acid ((S)-1-phenyl-ethyl)-amide], the Ki is 9 nM.
For `C[C@H](NC(=O)C1(c2ccccc2)CCN(C(=O)N2CCN(C3CCCC3)CC2)CC1)c1ccccc1` [Example 215, 1-(4-Cyclopentyl-piperazine-1-carbonyl)-4-phenyl-piperidine-4-carboxylic acid ((S)-1-phenyl-ethyl)-amide] the value was 20.6 nM; for `C[C@H](NC(=O)C1(c2ccccc2)CCN(C(=O)N2CCC(N3CCCCC3=O)CC2)CC1)c1ccccc1` [Example 216, 1-(2-Oxo-[1,4′]bipiperidinyl-1′-carbonyl)-4-phenyl-piperidine-4-carboxylic acid ((S)-1-phenyl-ethyl)-amide], 17.2 nM.
`C[C@H](NC(=O)C1(c2ccccc2)CCN(C(=O)N2CCC(N3CCSCC3)CC2)CC1)c1ccccc1` [Example 218, 4-Phenyl-1-(4-thiomorpholin-4-yl-piperidine-1-carbonyl)-piperidine-4-carboxylic acid ((S)-1-phenyl-ethyl)-amide]: the inhibitory constant (Ki) was found to be 5.2 nM.
The result for `C[C@H](NC(=O)C1(c2ccccc2)CCN(C(=O)N2CCN(c3ccc(Cl)cc3)CC2)CC1)c1ccccc1` [Example 219, 1-[4-(4-Chloro-phenyl)-piperazine-1-carbonyl]-4-phenyl-piperidine-4-carboxylic acid ((S)-1-phenyl-ethyl)-amide] reads 12.5 nM; that for `Cc1nnc(C)n1C1CCN(C(=O)N2CCC(C(=O)N[C@@H](C)c3ccccc3)(c3ccccc3)CC2)CC1` [Example 220, 1-[4-(3,5-Dimethyl-[1,2,4]triazol-4-yl)-piperidine-1-carbonyl]-4-phenyl-piperidine-4-carboxylic acid ((S)-1-phenyl-ethyl)-amide], 63.9 nM.
`Cc1noc(C2CCN(C(=O)N3CCC(C(=O)N[C@@H](C)c4ccc(F)cc4)(c4ccccc4)CC3)CC2)n1` [Example 221, 1-[4-(3-Methyl-[1,2,4]oxadiazol-5-yl)-piperidine-1-carbonyl]-4-phenyl-piperidine-4-carboxylic acid [(S)-1-(4-fluoro-phenyl)-ethyl]-amide]: the inhibition constant Ki is 11.7 nM.
For `C[C@H](NC(=O)C1(c2ccccc2)CCN(C(=O)N2CCC(N3CCSCC3)CC2)CC1)c1ccc(F)cc1` [Example 222, 4-Phenyl-1-(4-thiomorpholin-4-yl-piperidine-1-carbonyl)-piperidine-4-carboxylic acid [(S)-1-(4-fluoro-phenyl)-ethyl]-amide] the value was 10 nM.
The result for `C[C@H](NC(=O)C1(c2ccccc2)CCN(C(=O)N2CCC(N3CCS(=O)(=O)CC3)CC2)CC1)c1ccc(F)cc1` [Example 223, 1-[4-(1,1-Dioxo-1λ6-thiomorpholin-4-yl)-piperidine-1-carbonyl]-4-phenyl-piperidine-4-carboxylic acid [(S)-1-(4-fluoro-phenyl)-ethyl]-amide] reads 6 nM.
For the compound `C[C@H](NC(=O)C1(c2ccccc2)CCN(C(=O)N2CCN(c3cccnc3)CC2)CC1)c1ccccc1` [Example 224, 4-Phenyl-1-(4-pyridin-3-yl-piperazine-1-carbonyl)-piperidine-4-carboxylic acid ((S)-1-phenyl-ethyl)-amide], the Ki was determined as 63.8 nM.
The result for `C[C@H](NC(=O)C1(c2ccccc2)CCN(C(=O)N2CCN(c3cc(C#N)ccn3)CC2)CC1)c1ccccc1` [Example 225, 1-[4-(4-Cyano-pyridin-2-yl)-piperazine-1-carbonyl]-4-phenyl-piperidine-4-carboxylic acid ((S)-1-phenyl-ethyl)-amide] reads 50.6 nM.
The result for `Cc1cccc(N2CCN(C(=O)N3CCC(C(=O)N[C@@H](C)c4ccccc4)(c4ccccc4)CC3)CC2)c1` [Example 226, 4-Phenyl-1-(4-m-tolyl-piperazine-1-carbonyl)-piperidine-4-carboxylic acid ((S)-1-phenyl-ethyl)-amide] reads 64.8 nM; that for `C[C@H](NC(=O)C1(c2ccccc2)CCN(C(=O)N2CCN(c3ccc(C#N)cn3)CC2)CC1)c1ccccc1` [Example 227, 1-[4-(5-Cyano-pyridin-2-yl)-piperazine-1-carbonyl]-4-phenyl-piperidine-4-carboxylic acid ((S)-1-phenyl-ethyl)-amide], 24.9 nM; that for `Cc1ccccc1N1CCN(C(=O)N2CCC(C(=O)N[C@@H](C)c3ccccc3)(c3ccccc3)CC2)CC1` [Example 229, 4-Phenyl-1-(4-o-tolyl-piperazine-1-carbonyl)-piperidine-4-carboxylic acid ((S)-1-phenyl-ethyl)-amide], 34.9 nM.
On to `C[C@H](NC(=O)C1(c2ccccc2)CCN(C(=O)N2CCN(C3CCCCC3)CC2)CC1)c1ccccc1` [Example 230, 1-(4-Cyclohexyl-piperazine-1-carbonyl)-4-phenyl-piperidine-4-carboxylic acid ((S)-1-phenyl-ethyl)-amide], for which the Ki stood at 22.1 nM.
Consider `CC[C@H](NC(=O)C1(c2ccccc2)CCN(C(=O)N2CCN(c3ccc(F)cc3)CC2)CC1)c1ccccc1` [Example 231, 1-[4-(4-Fluoro-phenyl)-piperazine-1-carbonyl]-4-phenyl-piperidine-4-carboxylic acid ((S)-1-phenyl-propyl)-amide], for which the Ki amounted to 3.4 nM.
The result for `C[C@H](NC(=O)C1(c2ccccc2)CCN(C(=O)N2CCN(c3ccccc3)CC2)CC1)c1ccccc1` [Example 232, 4-Phenyl-1-(4-phenyl-piperazine-1-carbonyl)-piperidine-4-carboxylic acid ((S)-1-phenyl-ethyl)-amide] reads 36.3 nM.

Source of the values: US8324250B2 (Hoffmann-La Roche Inc., priority 2009, dated 2012).
